According to PMC13245873, “Uridine cytidine kinases govern molnupiravir bioactivation and anti-SARS-CoV-2 activity” (PLOS Pathogens, 2026):

Experiments:
[1] = molecular target: T1, UCK1 (Homo sapiens, UniProt Q9HA47); assay: ADP-Glo-coupled kinase kinetics; DSF dose-response; type: biochemical
T1 construct: recombinant, N-terminal His tag
T1 sequence (Q9HA47 1-277): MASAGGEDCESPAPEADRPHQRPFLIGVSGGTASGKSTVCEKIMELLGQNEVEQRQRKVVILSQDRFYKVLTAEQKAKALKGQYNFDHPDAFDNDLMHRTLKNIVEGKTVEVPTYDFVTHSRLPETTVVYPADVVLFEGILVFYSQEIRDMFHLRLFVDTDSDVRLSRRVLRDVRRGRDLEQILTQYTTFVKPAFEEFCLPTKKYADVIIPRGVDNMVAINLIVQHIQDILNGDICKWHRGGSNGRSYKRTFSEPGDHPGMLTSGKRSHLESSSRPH

[2] = molecular target: T2, UCK2 (Homo sapiens, UniProt Q9BZX2); assay: ADP-Glo-coupled kinase kinetics (kcat/Km); DSF dose-response; type: biochemical
T2 construct: recombinant, C-terminal His tag
T2 sequence (Q9BZX2 2-261): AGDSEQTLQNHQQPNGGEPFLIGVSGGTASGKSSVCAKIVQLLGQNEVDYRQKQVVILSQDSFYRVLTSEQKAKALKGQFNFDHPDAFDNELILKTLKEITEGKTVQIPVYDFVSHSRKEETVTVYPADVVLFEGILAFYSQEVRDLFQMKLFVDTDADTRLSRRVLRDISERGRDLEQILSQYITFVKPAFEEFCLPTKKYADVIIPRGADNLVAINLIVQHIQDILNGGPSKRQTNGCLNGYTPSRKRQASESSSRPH

[3] = molecular target: T3, UCK1 (Homo sapiens, UniProt Q9HA47); assay: X-ray co-crystal structure ([…] Å, with NHC); type: binding
T3 construct: amino acids 21–235, N-terminal His tag
T3 sequence (Q9HA47 21-235): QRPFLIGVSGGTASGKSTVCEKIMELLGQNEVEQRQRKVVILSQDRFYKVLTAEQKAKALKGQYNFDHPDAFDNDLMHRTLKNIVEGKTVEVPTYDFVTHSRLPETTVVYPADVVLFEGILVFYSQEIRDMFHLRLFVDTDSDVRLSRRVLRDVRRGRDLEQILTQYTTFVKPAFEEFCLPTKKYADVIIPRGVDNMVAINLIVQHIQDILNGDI

[4] = molecular target: the molecule itself; assay: SEC; gel filtration of purified recombinant UCK1 (amino acids 21–235) on a Superdex200 increase 10/300 GL column; single peak
[5] = substrate: O=c1nc(NO)ccn1[C@@H]1O[C@H](CO)[C@@H](O)[C@H]1O; assay: purified protein; type: binding, Homo sapiens; settings: AMPPNP (ATP site) and Mg2+ active site; π-stacking with F86 and F117; H-bonds with D65, D87, Y115, H120, R160 and the ATP gamma-phosphate
[6] = substrate: O=c1nc(NO)ccn1[C@@H]1O[C@H](CO)[C@@H](O)[C@H]1O; assay: ADP-Glo-coupled kinase kinetics (Km); DSF dose-response; type: biochemical, Homo sapiens; settings: ATP, Mg2+
Excerpt: ADP-Glo-coupled kinase kinetics (Km); DSF dose-response on UCK2 | NHC was a substrate for both UCK1 and UCK2

Question: For Nc1ccn([C@@H]2O[C@H](CO)[C@@H](O)[C@H]2O)c(=O)n1 [C, cytidine], which “ADP-Glo-coupled kinase kinetics; DSF dose-response” value [1] is on record?
Answer: Using cytidine as the substrate, the ADP-Glo-coupled kinase activity assay produced kinetic parameters

Question: What about the “ADP-Glo-coupled kinase kinetics (kcat/Km); DSF dose-response” value [2] of the same molecule?
Answer: 56666.7 M⁻¹ s⁻¹

Question: With Nc1ncnc2c1ncn2[C@@H]1O[C@H](CO[P@](=O)(O)O[P@](=O)(O)NP(=O)(O)O)[C@@H](O)[C@H]1O [AMPPNP, adenosine 5’-(β,γ-imido)triphosphate] as the molecule, how does the “X-ray co-crystal structure (2.40 Å, with NHC)” value [3] read?
Answer: AMPPNP binds in a pocket closer to the surface, and is positioned by H-bonds between the phosphate group and residues

B1: human UCK1 construct (amino acids 21–235) (enzyme, UniProt Q9HA47 21-235, looked up)
chain: QRPFLIGVSGGTASGKSTVCEKIMELLGQNEVEQRQRKVVILSQDRFYKVLTAEQKAKALKGQYNFDHPDAFDNDLMHRTLKNIVEGKTVEVPTYDFVTHSRLPETTVVYPADVVLFEGILVFYSQEIRDMFHLRLFVDTDSDVRLSRRVLRDVRRGRDLEQILTQYTTFVKPAFEEFCLPTKKYADVIIPRGVDNMVAINLIVQHIQDILNGDI
notes: uridine cytidine kinase 1 (UCK1), human, residues 21-235; cDNA optimized for expression in E. coli, in pET24a(+); Tetramer by gel filtration and in the crystal's asymmetric unit; also called hUCK1; uridine cytidine kinase 1; source: E. coli BL21 (DE3), purified (IMAC, SEC)
Question: Which results are given for B1?
Answer: stoichiometry N [4]: 4; Km [5]: 1140 ± 320 µM

B2: UCK2 (Homo sapiens) (protein)
chain: AGDSEQTLQNHQQPNGGEPFLIGVSGGTASGKSSVCAKIVQLLGQNEVDYRQKQVVILSQDSFYRVLTSEQKAKALKGQFNFDHPDAFDNELILKTLKEITEGKTVQIPVYDFVSHSRKEETVTVYPADVVLFEGILAFYSQEVRDLFQMKLFVDTDADTRLSRRVLRDISERGRDLEQILSQYITFVKPAFEEFCLPTKKYADVIIPRGADNLVAINLIVQHIQDILNGGPSKRQTNGCLNGYTPSRKRQASESSSRPH
notes: recombinant, C-terminal His tag
Question: How did the Km [6] turn out when B2 was run?
Answer: 260 ± 70 µM
